Converted amounts (≈) assume the structure as drawn. Where two headings read alike, the source gives them in different places.

What is called MIC90 is an inhibitory concentration at the 90% level, which refers to growth in some studies and to a panel of isolates in others. Low values mean higher susceptibility, high ones lower susceptibility.

One assay has as its target Mtb ClpP1P2 (Mycobacterium tuberculosis, UniProt P9WPC3+P9WPC5). As to the kind of experiment: Mtb ClpP1P2 peptidase assay (library screening and IC50 determination). It counts as biochemical.
The next assay has as its system GH189 (clpP1‐KD). Briefly: microbe, parasite or virus in culture. The class given is cell-based, M. bovis BCG. The conditions noted are these: for MIC: Mycobacterium tuberculosis variant bovis BCG.
A further assay deals with M. tuberculosis H37Rv. As to the kind of experiment: MIC against Mtb H37Rv. The class given is cell-based, Mycobacterium tuberculosis. The following applies: for MIC90: Mycobacterium tuberculosis, H37RV.
Where [1] appears, read: Figure S4, highest concentration 100 µM, read-out: concentration inhibiting 50% of the peptidase activity.
[2] abbreviates: read-out: MIC (µg/ml) when clpP1‐KD induced.
[3] abbreviates: read-out: MIC (µg/ml) when no clpP1‐KD.
The mark [4] stands for this setting: Figure 2B, neat/synthesized compounds, read-out: ClpP1P2 IC50.

Mtb ClpP1P2, sequence (P9WPC3 16-214, one chain of several): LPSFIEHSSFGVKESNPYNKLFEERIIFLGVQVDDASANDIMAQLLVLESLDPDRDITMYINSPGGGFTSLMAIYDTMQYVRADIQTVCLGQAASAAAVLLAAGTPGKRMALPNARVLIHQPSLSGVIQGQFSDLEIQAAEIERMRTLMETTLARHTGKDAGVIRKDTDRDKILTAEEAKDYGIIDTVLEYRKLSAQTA

With `CCc1cc(C(N)=S)ccn1` [Ethionamide], the IC50 on Mtb ClpP1P2 (setting [1]) is above 100 µM. Also, in the assay on GH189 (clpP1‐KD), the “downshift in the MIC against GH189 on clpP1‐KD” value (from here on “downshift in the MIC”) is above 2 fold. Also, the MIC in the assay with GH189 (clpP1‐KD) (setting [2]) was found to be 6.4 µg/mL (≈ 38.5 µM); with GH189 (clpP1‐KD) (setting [3]), 46 µg/mL (≈ 277 µM).
For the compound `N[C@@H]1CON=C1O` [D‐Cycloserine], the MIC in the assay on GH189 (clpP1‐KD) (setting [2]) amounted to 9.3 µg/mL (≈ 91.1 µM); in the assay on GH189 (clpP1‐KD) (setting [3]), 11 µg/mL (≈ 108 µM).
On to `C[C@@H](O)[C@H]1C(=O)N2C(C(=O)O)=C(S[C@@H]3CN[C@H](C(=O)N(C)C)C3)[C@H](C)[C@H]12` [Meropenem], for which, at Mtb ClpP1P2 (setting [1]), the IC50 was above 100 µM. Also, the “downshift in the MIC” value in the assay on GH189 (clpP1‐KD) was above 2 fold. The MIC in the assay on GH189 (clpP1‐KD) (setting [2]) was found to be 1.6 µg/mL (≈ 4.17 µM); in the assay on GH189 (clpP1‐KD) (setting [3]), 5.3 µg/mL (≈ 13.8 µM).
As to Capreomycin, in the assay on GH189 (clpP1‐KD), the “MIC (µg/ml) when clpP1‐KD induced” value was found to be 0.14 µg/mL and the “MIC (µg/ml) when no clpP1‐KD” value came to 0.25 µg/mL.
Consider `CO[C@H]1/C=C/O[C@@]2(C)Oc3c(C)c(O)c4c(O)c(c(/C=N/N5CCN(C)CC5)c(O)c4c3C2=O)NC(=O)/C(C)=C\C=C\[C@H](C)[C@H](O)[C@@H](C)[C@@H](O)[C@@H](C)[C@H](OC(C)=O)[C@@H]1C` [Rifampicin], for which the MIC in the assay with GH189 (clpP1‐KD) (setting [2]) and with GH189 (clpP1‐KD) (setting [3]) was 0.01 µg/mL (≈ 0.0122 µM) throughout.
With `O=C(Nc1ccc(Cl)cc1)c1ccc(N2CCOCC2)c([N+](=O)[O-])c1` [GDI‐5757], the “inhibition of ClpP1P2 peptidase at 100 µM” value at Mtb ClpP1P2 was “Neither analog could inhibit”. Also, at Mtb ClpP1P2 (setting [4]), the IC50 was above 100 µM. In addition, in the assay with M. tuberculosis H37Rv, the “inhibition of Mtb whole cell at 100 µM” value is listed as “Neither analog could inhibit” and the MIC90 was above 100 µM. Besides, in the assay with GH189 (clpP1‐KD), the “MIC shift against GH189 on ATc induction” value was “remained inactive”.
As to `CO[C@H]1/C=C/O[C@@]2(C)Oc3c(C)c(O)c4c(O)c(cc(O)c4c3C2=O)NC(=O)/C(C)=C\C=C\[C@H](C)[C@H](O)[C@@H](C)[C@@H](O)[C@@H](C)[C@H](OC(C)=O)[C@@H]1C` [Rifamycin, reference compound], the IC50 on Mtb ClpP1P2 (setting [1]) was above 100 µM.
Take `CC[C@H]1OC(=O)[C@H](C)[C@@H](O[C@H]2C[C@@](C)(OC)[C@@H](O)[C@H](C)O2)[C@H](C)[C@@H](O[C@@H]2O[C@H](C)C[C@H](N(C)C)[C@H]2O)[C@](C)(OC)C[C@@H](C)C(=O)[C@H](C)[C@@H](O)[C@]1(C)O` [Clarithromycin]: the MIC in the assay on GH189 (clpP1‐KD) (setting [2]) stood at 0.1 µg/mL (≈ 0.134 µM); with GH189 (clpP1‐KD) (setting [3]) it was 0.11 µg/mL (≈ 0.147 µM).
Take `NNC(=O)c1ccncc1` [Isoniazid]: the IC50 at Mtb ClpP1P2 (setting [1]) is above 100 µM. Also, the MIC with GH189 (clpP1‐KD) (setting [2]) worked out at 0.057 µg/mL (≈ 0.416 µM); in the assay with GH189 (clpP1‐KD) (setting [3]), 0.066 µg/mL (≈ 0.481 µM).
With `[H]/N=C(/N)N[C@H]1[C@H](O)[C@@H](O)[C@H](O[C@@H]2O[C@@H](C)[C@](O)(C=O)[C@H]2O[C@@H]2O[C@@H](CO)[C@H](O)[C@@H](O)[C@@H]2NC)[C@@H](N/C(N)=N\[H])[C@@H]1O` [Streptomycin], the values for the MIC in the assay with GH189 (clpP1‐KD) (setting [2]) and with GH189 (clpP1‐KD) (setting [3]) were 0.23 µg/mL (≈ 0.395 µM) and 0.24 µg/mL (≈ 0.413 µM), respectively.
Take `CC(=O)NC[C@H]1CN(c2ccc(N3CCOCC3)c(F)c2)C(=O)O1` [Linezolid]: the MIC in the assay with GH189 (clpP1‐KD) (setting [2]) is 0.97 µg/mL (≈ 2.88 µM); in the assay with GH189 (clpP1‐KD) (setting [3]) it was 1 µg/mL (≈ 2.96 µM).
Turning to `CC[C@@H](CO)NCCN[C@@H](CC)CO` [Ethambutol], in the assay with GH189 (clpP1‐KD), the “downshift in the MIC” value was above 2 fold. The figures for the MIC with GH189 (clpP1‐KD) (setting [2]) and with GH189 (clpP1‐KD) (setting [3]) were 0.28 µg/mL (≈ 1.37 µM) and 0.62 µg/mL (≈ 3.03 µM), respectively.
Turning to `COc1nc2ccc(Br)cc2cc1[C@@H](c1ccccc1)[C@@](O)(CCN(C)C)c1cccc2ccccc12` [Bedaquiline], the MIC with GH189 (clpP1‐KD) (setting [2]) and in the assay with GH189 (clpP1‐KD) (setting [3]) was 0.06 µg/mL (≈ 0.108 µM) each time.
For the compound `CC[C@H]1OC(=O)[C@H](C)[C@@H](O[C@H]2C[C@@](C)(OC)[C@@H](O)[C@H](C)O2)[C@H](C)[C@@H](O[C@@H]2O[C@H](C)C[C@H](N(C)C)[C@H]2O)[C@](C)(O)C[C@@H](C)CN(C)[C@H](C)[C@@H](O)[C@]1(C)O` [Azithromycin], the figures for the MIC in the assay with GH189 (clpP1‐KD) (setting [2]) and in the assay on GH189 (clpP1‐KD) (setting [3]) were 0.46 µg/mL (≈ 0.614 µM) and 0.5 µg/mL (≈ 0.668 µM), respectively.
In the case of `O=C(Oc1ccccc1)c1ccc(N2CCOCC2)c([N+](=O)[O-])c1` [GDI‐5756], the “inhibition of ClpP1P2 peptidase at 100 µM” value on Mtb ClpP1P2 was “Neither analog could inhibit”. Moreover, the IC50 at Mtb ClpP1P2 (setting [4]) is above 100 µM. For the same compound, in the assay with M. tuberculosis H37Rv, the “inhibition of Mtb whole cell at 100 µM” value was “Neither analog could inhibit” and the MIC90 was above 100 µM. Besides, the “MIC shift against GH189 on ATc induction” value in the assay with GH189 (clpP1‐KD) is recorded as “marginally shifted down”.
Consider `O=C(Oc1ccc(Cl)cc1)c1ccc(COC(=O)c2cnccn2)cc1` [SAM002946897], for which, on Mtb ClpP1P2 (library stocks, concentration–response, read-out: IC50), the IC50 was 3.23 µM.
For `NC(=O)c1cnccn1` [Pyrazinamide, reference compound], at Mtb ClpP1P2 (setting [1]), the IC50 was above 100 µM.
For `O=[N+]([O-])c1cn2c(n1)OC[C@@H](OCc1ccc(OC(F)(F)F)cc1)C2` [Pretomanid], the MIC worked out at 0.06 µg/mL (≈ 0.167 µM) in the assay on GH189 (clpP1‐KD) (setting [2]) and 0.12 µg/mL (≈ 0.334 µM) in the assay on GH189 (clpP1‐KD) (setting [3]).

(Values after publication PMC12042115 (mLife, 2025).)
